Measurements: patent US12304916B2, “Thienopyridinyl and thiazolopyridinyl compounds useful as IRAK4 inhibitors” (BRISTOL-MYERS SQUIBB COMPANY, priority 2019, dated 2025)
pIC50: −log10 of the molar value.

Target: IRAK4 (Homo sapiens (Human), UniProt Q9NWZ3)
Assay: IRAK4 Inhibition Assay
Assay type: biochemical
Conditions: ATP 500 μM; IRAK4 0.6 nM; 60 min at room temperature
Method: The assays were performed in U-bottom 384-well plates. The final assay volume was 30 μL prepared from 15 μL additions of enzyme and substrates (fluoresceinated peptide and ATP) and test compounds in assay buffer (20 mM HEPES pH 7.2, 10 mM MgCl2, 0.015% Brij 35 and 4 mM DTT). The reaction was initiated by the combination of IRAK4 with substrates and test compounds. The reaction mixture was incubated at room temperature for 60 min. and terminated by adding 45 μL of 35 mM EDTA to each sample. The reaction mixture was analyzed on the Caliper LABCHIP® 3000 (Caliper, Hopkinton, MA) by electrophoretic separation of the fluorescent substrate and phosphorylated product. Inhibition data were calculated by comparison to no enzyme control reactions for 100% inhibition and vehicle-only reactions for 0% inhibition. The final concentrations of reagents in the assays are ATP, 500 μM; FL-IPTSPITTTYFFFKKK peptide 1.5 μM; IRAK4, 0.6 nM; and DMSO, 1.6%.

IRAK4, sequence (Q9NWZ3 whole entry, species assumed): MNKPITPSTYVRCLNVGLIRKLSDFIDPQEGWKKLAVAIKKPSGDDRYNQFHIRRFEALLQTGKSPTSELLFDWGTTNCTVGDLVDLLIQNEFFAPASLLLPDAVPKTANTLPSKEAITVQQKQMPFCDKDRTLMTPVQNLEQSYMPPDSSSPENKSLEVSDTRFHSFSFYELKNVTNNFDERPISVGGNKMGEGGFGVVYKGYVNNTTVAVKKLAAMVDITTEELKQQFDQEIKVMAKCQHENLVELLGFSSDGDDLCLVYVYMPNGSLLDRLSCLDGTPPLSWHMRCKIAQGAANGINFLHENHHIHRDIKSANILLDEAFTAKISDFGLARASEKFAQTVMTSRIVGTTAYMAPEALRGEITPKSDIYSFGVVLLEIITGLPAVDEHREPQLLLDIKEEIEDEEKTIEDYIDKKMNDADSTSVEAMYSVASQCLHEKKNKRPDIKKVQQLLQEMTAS

| pIC50 | Structure (SMILES) |
| --- | --- |
| 6.39 | O=C(N[C@H]1CC[C@H](O)CC1)c1cnc2sc(-c3cncs3)cc2c1Nc1cnn(CC(F)F)c1 [Example 49, 4-((1-(2,2-difluoroethyl)-1H-pyrazol-4-yl)amino)-N-((1s,4s)-4-hydroxycyclohexyl)-2-(thiazol-5-yl)thieno[2,3-b]pyridine-5-carboxamide] |
| 7.62 | CC(C)Nc1c(C(=O)NCCN2CCS(=O)(=O)CC2)cnc2sc(-c3ccc(=O)[nH]c3)cc12 [Example 73, N-(2-(1,1-dioxidothiomorpholino)ethyl)-4-(isopropylamino)-2-(6-oxo-1,6-dihydropyridin-3-yl)thieno[2,3-b]pyridine-5-carboxamide] |
| 7.45 | CC(C)CCNC(=O)c1cnc2sc(-c3cccnc3)cc2c1NC(C)C [Example 31, N-isopentyl-4-(isopropylamino)-2-(pyridin-3-yl) thieno[2,3-b]pyridine-5-carboxamide] |
| 6.70 | O=C(NCc1ncn[nH]1)c1cnc2sc(-c3cncs3)cc2c1NC1COC1 [Example 55, N-((1H-1,2,4-triazol-5-yl)methyl)-4-(oxetan-3-ylamino)-2-(thiazol-5-yl)thieno[2,3-b]pyridine-5-carboxamide] |
| 8.10 | CC(C)(O)[C@H](F)CNC(=O)c1cnc2sc(-c3ccccc3)nc2c1NC1CCOCC1 [Example 4, (R)-N-(2-fluoro-3-hydroxy-3-methylbutyl)-2-phenyl-7-((tetrahydro-2H-pyran-4-yl)amino)thiazolo[5,4-b]pyridine-6-carboxamide] |
| 7.40 | CC(C)(O)[C@H](F)CNC(=O)c1cnc2sc(-c3ccccc3)nc2c1NC1CC1 [Example 1, (R)-7-(cyclopropylamino)-N-(2-fluoro-3-hydroxy-3-methylbutyl)-2-phenylthiazolo[5,4-b]pyridine-6-carboxamide] |
| 6.36 | C[C@H](CO)Nc1c(C(=O)NCCC#N)cnc2sc(-c3ccccc3)nc12 [Example 9, (R)-N-(2-cyanoethyl)-7-((1-hydroxypropan-2-yl)amino)-2-phenylthiazolo[5,4-b]pyridine-6-carboxamide] |
| 6.77 | C[C@H](CO)Nc1c(C(=O)NCCC(C)(C)O)cnc2sc(-c3ccccc3)nc12 [Example 7, (R)-N-(3-hydroxy-3-methylbutyl)-7-((1-hydroxypropan-2-yl)amino)-2-phenylthiazolo[5,4-b]pyridine-6-carboxamide] |
| 7.01 | CC(C)Nc1c(C(=O)NC2CC(O)C2)cnc2sc(-c3cncs3)cc12 (stereo not shown) [Example 61, N-(3-hydroxycyclobutyl)-4-(isopropylamino)-2-(thiazol-5-yl) thieno[2,3-b]pyridine-5-carboxamide] |
| 7.35 | CC(C)Nc1c(-n2cc(CCC(C)(C)O)nn2)cnc2sc(-c3ccncc3)cc12 [Example 75, 4-(1-(4-(isopropylamino)-2-(pyridin-4-yl)thieno[2,3-b]pyridin-5-yl)-1H-1,2,3-triazol-4-yl)-2-methylbutan-2-ol] |
| 7.56 | CC(C)Nc1c(C(=O)NC[C@@H](F)C(C)(C)O)cnc2sc(-c3ccc4nccn4c3)cc12 [Example 26, (R)-N-(2-fluoro-3-hydroxy-3-methylbutyl)-2-(imidazo[1,2-a]pyridin-6-yl)-4-(isopropylamino)thieno[2,3-b]pyridine-5-carboxamide] |
| 6.42 | CC(C)Nc1c(C(=O)NCCC2(CO)CC2)cnc2sc(-c3cncs3)cc12 [Example 37, N-(2-(1-(hydroxymethyl)cyclopropyl)ethyl)-4-(isopropylamino)-2-(thiazol-5-yl)thieno[2,3-b]pyridine-5-carboxamide] |
| 7.14 | CC(C)(O)[C@H](F)CNC(=O)c1cnc2sc(-c3cncs3)cc2c1Nc1cnn(CC(F)F)c1 [Example 52, (R)-4-((1-(2,2-difluoroethyl)-1H-pyrazol-4-yl)amino)-N-(2-fluoro-3-hydroxy-3-methylbutyl)-2-(thiazol-5-yl)thieno[2,3-b]pyridine-5-carboxamide] |
